What was measured:
[1] = molecular target: CXXC5-Dvl interaction (PDZ domain of Dvl (dishevelled) protein / PTD-DBM-FITC); assay: CXXC5-Dvl binding inhibition, competition of PTD-DBM-FITC on plate-bound Dvl PDZ domain; details: purified Dvl PDZ domain 5 μg/mL, 10 μM PTD-DBM-FITC, compounds 0.001-100 μM, FITC fluorescence
Description: 5 μg/mL of the purified PDZ domain ofDvl (dishevelled) protein was attached to the bottom of a 96-well black immunoplate and left in a chamber at 4° C. for one day. The next day, each well was washed with PBS and 10 μM PTD-DBM-FITC was added. After incubation at room temperature for 3 hours, each well was washed with PBS. Each well was treated with the indoline derivatives at various concentrations (100, 10, 1, 0.1, 0.01, and 0.001 μM) in 100 μL of PBS. After washing with a buffer, fluorescence was measured by FITC using a microplate reader. A competition binding curve showing the degree of CXXC5-Dvl PPI inhibition was constructed using the GraphPad Prism software, and the IC50 value was calculated. […] CK090), and the intermediate compound 5-cyanoindirubin as controls.

[2] = test system: mice induced with metabolic dysfunction-associated steatohepatitis (MASH); assay: Liver morphology, H&E histology and MAFLD activity score in MASH mice; type: in vivo, C57BL/6N mice; details: 25 mg/kg/day orally for 4 weeks
Description: (§1) Five-week-old wild-type male C57BL/6N mice were purchased from Orient Bio Co., Ltd. They were allowed to acclimate to the laboratory environment for one week. Mice weighing 18-20 g on average were used in the experiment. To ensure ethical and scientific validity and efficient management of animal experiments, the experiment was conducted with the approval of the Institutional Review Board (IACUC-A-202205-1472-01) of Severance Hospital, Yonsei University College of Medicine.
The mice were divided into a normal group (NCD) and a high-fat diet group (HFD). The normal group (NCD) was fed a normal chow diet (NCD, Teklad Global 18% protein rodent diet), and the high-fat diet group (HFD) was fed a high-fat diet (HFD, D12492) in which fat accounted for 60% of the total calories, for 8 weeks. […]
After preparing the 7 groups, the animals were sacrificed using carbon dioxide and the liver tissues were extracted. […] Twenty randomly selected microscopic fields were photographed and analyzed using a Nikon bright-field optical microscope (Nikon TE-2000U).
After preparing the 7 groups, the animals were sacrificed using carbon dioxide and the liver tissues were extracted. After staining the liver tissues with H&E, scores were calculated using the MAFLD activity scoring system. […]

[3] = test system: lipid droplets / PPARγ in liver tissue; assay: Liver Oil Red O staining and PPARγ immunohistochemistry in MASH mice; type: in vivo, C57BL/6N mice; details: 25 mg/kg/day orally for 4 weeks
Description: as §1
(§2) The mice were divided into a normal group (NCD) and a high-fat diet group (HFD). The normal group (NCD) was fed a normal chow diet (NCD, Teklad Global 18% protein rodent diet), and the high-fat diet group (HFD) was fed a high-fat diet (HFD, D12492) in which fat accounted for 60% of the total calories, for 8 weeks.
(§3) Mice induced with metabolic dysfunction-associated steatohepatitis (MASH) (hereinafter, referred to as MASH or MASH group) were prepared by administering CCl4 intraperitoneally twice a week for 4 weeks after feeding the high-fat diet (HFD) for 8 weeks. The […] was diluted with corn oil at a ratio of 1:19 and injected at a dosage of 2 mL/kg. The normal group (NOD) was administered the same volume of physiological saline.
(§4) The animals were divided into 7 groups, each with 10 animals.
It was investigated whether the accumulation of triglycerides in the liver is suppressed effectively. For this purpose, liver tissue was extracted from each group, and it was prepared into 10-μm thick cryosections, which were then stained with Oil Red O. Details are as follows. After preparing the 7 groups, the animals were euthanized using carbon dioxide and the liver tissues were extracted. A certain area of the extracted liver tissue was cryosectioned to 10 μm thickness, fixed in 4% neutral paraformaldehyde for 20 minutes at room temperature, and washed with 70% isopropanol (Duksan Pure Chemicals). After staining with the Oil Red O (Sigma-Aldrich) reagent for 20 minutes, the sections were washed thoroughly three times with distilled water. The tissue was counterstained with Mayer's hematoxylin. Then, Oil Red O staining images were visualized using a bright-field microscope (Nikon TE-2000U).
After preparing the 7 groups, the animals were sacrificed using carbon dioxide and the liver tissues were extracted. The extracted tissues were fixed in 4% neutral paraformaldehyde and embedded in paraffin to prepare sections. The paraffin sections were cut to 4-μm thickness, deparaffinized, and then rehydrated. For antigen exposure, slides were autoclaved in a 10 mM sodium citrate buffer (pH 6.0). To block endogenous peroxidase activity prior to peroxidase IHC analysis, the tissues were incubated with 0.3% H2O2 for 10 minutes. The incubated sections were treated with phosphate-buffered saline (PBS) containing 10% NGS and 0.3% Tween-20 for 1 hour at room temperature, treated with primary antibodies of anti-PPARγ (1:50; Abcam), and incubated overnight at 4° C.
The sections treated with the primary antibodies were washed with PBS and incubated with biotinylated anti-mouse (1:400; Dako) or anti-rabbit (1:400; Dako) secondary antibodies for 1 hour at room temperature. The sections incubated with the secondary antibodies were stained with 3,3′-diaminobenzidine (DAB; Dako) for 3-7 minutes and then counterstained with Mayer's haematoxylin. All incubations were performed in a humid chamber. After the staining, images were taken and analyzed using a bright-field microscope (Nikon TE-2000U).

[4] = test system: mice induced with metabolic dysfunction-associated steatohepatitis (MASH); assay: Liver fibrosis score from collagen staining (Picrosirius red) in MASH mice; type: in vivo, C57BL/6N mice; details: 25 mg/kg/day orally for 4 weeks; mean±SD; normal group 0, MASH group 3.11
Description: as §1, §2, §3, §4
After preparing the 7 groups, the animals were euthanized using carbon dioxide and the liver tissues were extracted. The extracted tissues were fixed in 4% neutral paraformaldehyde and embedded in paraffin to prepare sections. The paraffin sections were cut to 4-μm thickness, deparaffinized, and then rehydrated. The hydrated sections were stained with a Weigert's iron hematoxylin solution for 8 minutes and then with Picrosirius red for 1 hour. Collagen fibers were stained red and nuclei were stained blue. The sections were photographed using a bright-field microscope (Nikon TE-2000U).
The main mechanism of nonalcoholic fatty liver disease is the induction of hepatic stellate cell activation, which induces collagen production and leads to liver fibrosis due to collagen accumulation. From the result of collagen staining (Picrosirius red) for observing the total amount of collagen deposition in Test Example 3-6, the liver fibrosis score was analyzed. Stages 2 to 3 were diagnosed as nonalcoholic fatty liver disease (MASH) (M. Brunt et al., 2005).
All quantitative data are presented as mean±standard deviation (SD). In each experiment, all measurements were made at least three times, and data were analyzed using the two-tailed, unpaired Student's t test. P values of <0.05 were considered statistically significant.

IC50 [1]: 11.1 µM
Compound: N#Cc1ccc2c(c1)/C(=C1/Nc3ccccc3C1=O)C(=O)N2 [5-cyanoindirubin]
steatosis / lipid droplets in liver tissue, H&E staining [2]: steatosis was also confirmed clearly | fatty liver, morphological observation of liver tissue ([2]; vs MASH group (vehicle)): fatty liver was not alleviated significantly | lipid droplet formation and lipid infiltration in liver, Oil Red O staining [3]: no significant difference was observed | Degree of liver fibrosis (fibrosis score) [4]: 2.89

From patent publication US20260250247A1, “NOVEL INDOLINE DERIVATIVE AND USE THEREOF” (CK REGEON INC., priority 2023, published 2026)
